Data taken from patent publication US20110124867A1, “Process and intermediates for the Synthesis of heterocyclic Substituted Piperazines with CXCR3 Antagonist Activity” (Schering Corporation, priority 2007, published 2011).

What was measured:
[1] = aqueous solubility of salt forms (comparison in words, no method given); assay type: physicochemical; settings: methylsulfonate salt compared to other salts
CXCR3 = target: T1, CXCR3 (Homo sapiens, UniProt P49682); settings: statement in words, refers to the '641 application; cited from earlier work
T1 sequence (P49682 1-368): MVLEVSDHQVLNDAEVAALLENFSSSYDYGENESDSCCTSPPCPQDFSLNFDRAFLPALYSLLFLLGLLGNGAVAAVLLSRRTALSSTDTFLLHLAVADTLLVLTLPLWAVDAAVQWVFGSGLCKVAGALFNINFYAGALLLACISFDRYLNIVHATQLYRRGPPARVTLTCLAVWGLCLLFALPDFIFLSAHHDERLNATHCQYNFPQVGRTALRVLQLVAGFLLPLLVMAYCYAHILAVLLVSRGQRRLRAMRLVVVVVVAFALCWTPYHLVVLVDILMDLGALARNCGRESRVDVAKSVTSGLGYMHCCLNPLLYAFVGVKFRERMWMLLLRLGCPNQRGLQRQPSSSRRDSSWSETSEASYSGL

| aqueous solubility [1] | Structure (SMILES) | CXCR3 inhibitor activity (CXCR3) |
| --- | --- | --- |
| higher aqueous solubility | CCNc1nnc(-c2cnc(N3C[C@H](CC)N(C4CCN(C(=O)c5ccc(Cl)cc5)CC4)C[C@H]3C)c(C)n2)o1 [Compound II-1] | – |
| – | CCNc1nnc(-c2cnc(N3C[C@H](CC)N(C4CCN(C(=O)c5ccc(Cl)cc5)CC4)C[C@H]3C)c(C)n2)o1 [Compound A45] | useful CXCR3 inhibitor activity |
